These are literature values, as cited in US20070167440A1, “Novel pyrrolidine compound and a process for preparing the same” (priority 2004, published 2007).

The data set has as its system gastric motility. The note with it: mice; disclosed in JP1993-17434.

Molecules are shown by their SMILES.

On to `COc1cc(N)c(Cl)cc1C(=O)NC1CC(CO)N(C(c2ccccc2)c2ccccc2)C1` (stereo not shown) [4-amino-5-chloro-N-[1-(diphenylmethyl)-5-(hydroxymethyl)-3-pyrrolidinyl]-2-methoxy-benzamide], for which the gastric motility result is listed as “increased gastric motility”.
